Reference: patent US20070287703A1, “Fused Pyrimidones Useful in the Treatment and the Prevention of Cancer” (AstraZeneca AB, priority 2004, published 2007)

Biological target: T1, recombinant HsEg5 motor domain (amino acids 1-369-8His) (Homo sapiens, UniProt P52732)
T1 construct: recombinant HsEg5 motor domain (amino acids 1-369-8His); 8His (C)
T1 sequence (P52732 1-369): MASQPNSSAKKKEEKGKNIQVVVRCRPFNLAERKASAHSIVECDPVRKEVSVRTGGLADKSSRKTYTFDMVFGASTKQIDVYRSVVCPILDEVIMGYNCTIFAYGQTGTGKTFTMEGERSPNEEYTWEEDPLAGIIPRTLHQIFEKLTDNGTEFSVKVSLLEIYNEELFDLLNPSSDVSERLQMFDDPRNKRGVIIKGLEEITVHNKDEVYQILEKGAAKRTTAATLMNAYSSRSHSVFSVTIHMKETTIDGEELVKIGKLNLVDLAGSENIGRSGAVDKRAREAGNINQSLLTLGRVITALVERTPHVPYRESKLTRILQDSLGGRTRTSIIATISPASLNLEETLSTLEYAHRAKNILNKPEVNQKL
Test: Malachite Green Assay of Eg5 motor ATPase activity
Format: biochemical
Details: 6 nM enzyme, 300 μM ATP, 908 nM polymerized tubulin, 20 min pre-incubation, 20 min reaction at room temperature
Procedure: Enzymatic activity of the Eg5 motor and effects of inhibitors was measured using a malachite green assay, which measures phosphate liberated from ATP, and has been used previously to measure the activity of kinesin motors (Hackney D D, and Jiang W, Assays for kinesin microtubule-stimulated ATPase activity; Methods in Molecular Biology vol 164:65-71 (2001)). Enzyme was recombinant HsEg5 motor domain (amino acids 1-369-8His) and was added at a final concentration of 6 nM to 100 μl reactions. […]
5 μl of compound diluted in 12% DMSO was added to the wells of 96 well plates. […] The reactions were then quenched by the addition of 150 μl malachite green/ammonium molybdate reagent, and absorbance read at 650 nanometers exactly 5 min after quench using a Spectramax Plus plate reader (Molecular Devices). Data was graphed and IC50s calculated using ExCel Fit (Microsoft).

IC50: 331 nM
SMILES: CCC(c1nc2n(c(=O)c1Cc1ccccc1)CCCS2)N(CCCN)C(=O)c1ccc(OC)cc1 (stereo not shown) [Example 4, 3,4-Dihydro-6-oxo-7-benzyl-8-{1-[N-(4-methoxybenzoyl)-N-(3-aminopropyl)amino]propyl}-2H,6H-pyrimido[2,1-b][1,3]thiazine]
